Reference: ChEMBL document CHEMBL3044763, “Inhibitory Activities of Rhodanine Derivatives on Plant Growth” (Biosci Biotechnol Biochem, 1996)

Key:
[1] = test system: Brassica rapa subsp. oleifera; experiment: Growth inhibition of Brassica rapa subsp. oleifera assessed as root growth at 1 x 10^-4 M after 7 days; format: functional
[2] = Toxicity in Mus musculus ddY (mouse) assessed as mortality at 275 mg/kg, ip after 1 day; format: organism-based; design: dose 275 mg/kg, route intraperitoneal; details: in vivo
[3] = test system: Brassica rapa subsp. oleifera; experiment: Growth inhibition of Brassica rapa subsp. oleifera assessed as chlorophyll a level at 5 x 10^-5 M after 7 days; format: functional; design: scale not given: the % may be the effect or the level left
[4] = Toxicity in Mus musculus ddY (mouse) assessed as mortality at 375 mg/kg, ip after 5 days; format: organism-based; design: dose 375 mg/kg, route intraperitoneal; details: in vivo
[5] = Toxicity in Mus musculus ddY (mouse) assessed as mortality at 275 mg/kg, ip after 7 days; format: organism-based; design: dose 275 mg/kg, route intraperitoneal; details: in vivo
[6] = Toxicity in Mus musculus ddY (mouse) assessed as mortality at 300 mg/kg, ip after 7 days; format: organism-based; design: dose 300 mg/kg, route intraperitoneal; details: in vivo
[7] = Toxicity in Mus musculus ddY (mouse) assessed as mortality at 275 mg/kg, ip after 4 days; format: organism-based; design: dose 275 mg/kg, route intraperitoneal; details: in vivo
[8] = test system: Brassica rapa subsp. oleifera; experiment: Growth inhibition of Brassica rapa subsp. oleifera assessed as total chlorophyll level at 1 x 10^-4 M after 7 days; format: functional; design: scale not given: the % may be the effect or the level left
[9] = Toxicity in Mus musculus ddY (mouse) assessed as mortality at 325 mg/kg, ip after 4 days; format: organism-based; design: dose 325 mg/kg, route intraperitoneal; details: in vivo
[10] = Toxicity in Mus musculus ddY (mouse) assessed as mortality at 375 mg/kg, ip after 4 days; format: organism-based; design: dose 375 mg/kg, route intraperitoneal; details: in vivo
[11] = Toxicity in Mus musculus ddY (mouse) assessed as mortality at 375 mg/kg, ip after 3 days; format: organism-based; design: dose 375 mg/kg, route intraperitoneal; details: in vivo
[12] = Toxicity in Mus musculus ddY (mouse) assessed as mortality at 275 mg/kg, ip after 6 days; format: organism-based; design: dose 275 mg/kg, route intraperitoneal; details: in vivo
[13] = Toxicity in Mus musculus ddY (mouse) assessed as mortality at 325 mg/kg, ip after 7 days; format: organism-based; design: dose 325 mg/kg, route intraperitoneal; details: in vivo
[14] = test system: Brassica rapa subsp. oleifera; experiment: Growth inhibition of Brassica rapa subsp. oleifera assessed as total chlorophyll level at 3 x 10^-4 M after 7 days; format: functional; design: scale not given: the % may be the effect or the level left
[15] = Toxicity in Mus musculus ddY (mouse) assessed as mortality at 350 mg/kg, ip after 2 days; format: organism-based; design: dose 350 mg/kg, route intraperitoneal; details: in vivo
[16] = Toxicity in Mus musculus ddY (mouse) assessed as mortality at 375 mg/kg, ip after 2 days; format: organism-based; design: dose 375 mg/kg, route intraperitoneal; details: in vivo
[17] = Toxicity in Mus musculus ddY (mouse) assessed as mortality at 325 mg/kg, ip after 3 days; format: organism-based; design: dose 325 mg/kg, route intraperitoneal; details: in vivo
[18] = Toxicity in Mus musculus ddY (mouse) assessed as mortality at 350 mg/kg, ip after 1 day; format: organism-based; design: dose 350 mg/kg, route intraperitoneal; details: in vivo
[19] = Toxicity in Mus musculus ddY (mouse) assessed as mortality at 400 mg/kg, ip after 6 days; format: organism-based; design: dose 400 mg/kg, route intraperitoneal; details: in vivo
[20] = test system: Brassica rapa subsp. oleifera; experiment: Growth inhibition of Brassica rapa subsp. oleifera assessed as chlorophyll a level at 1 x 10^-4 M after 7 days; format: functional; design: scale not given: the % may be the effect or the level left
[21] = Toxicity in Mus musculus ddY (mouse) assessed as mortality at 400 mg/kg, ip after 5 days; format: organism-based; design: dose 400 mg/kg, route intraperitoneal; details: in vivo
[22] = test system: Brassica rapa subsp. oleifera; experiment: Growth inhibition of Brassica rapa subsp. oleifera assessed as chlorophyll b level at 3 x 10^-5 M after 7 days; format: functional; design: scale not given: the % may be the effect or the level left
[23] = Toxicity in Mus musculus ddY (mouse) assessed as mortality at 350 mg/kg, ip after 3 days; format: organism-based; design: dose 350 mg/kg, route intraperitoneal; details: in vivo
[24] = test system: Brassica rapa subsp. oleifera; experiment: Growth inhibition of Brassica rapa subsp. oleifera assessed as root growth at 3 x 10^-5 M after 7 days; format: functional
[25] = Toxicity in Mus musculus ddY (mouse) assessed as mortality at 400 mg/kg, ip after 3 days; format: organism-based; design: dose 400 mg/kg, route intraperitoneal; details: in vivo
[26] = Toxicity in Mus musculus ddY (mouse) assessed as mortality at 300 mg/kg, ip after 5 days; format: organism-based; design: dose 300 mg/kg, route intraperitoneal; details: in vivo
[27] = Toxicity in Mus musculus ddY (mouse) assessed as mortality at 325 mg/kg, ip after 5 days; format: organism-based; design: dose 325 mg/kg, route intraperitoneal; details: in vivo
[28] = test system: Brassica rapa subsp. oleifera; experiment: Growth inhibition of Brassica rapa subsp. oleifera assessed as total chlorophyll level at 3 x 10^-5 M after 7 days; format: functional; design: scale not given: the % may be the effect or the level left
[29] = Toxicity in Mus musculus ddY (mouse) assessed as mortality at 325 mg/kg, ip after 6 days; format: organism-based; design: dose 325 mg/kg, route intraperitoneal; details: in vivo

With `O=C1CSC(=S)N1` [RHODANINE] the Activity [1] was 38.7 mm, the mortality at 24 h [2] was 0% and the Activity [3] was 14.1%. For the same compound, the mortality at 120 h [4] was 100%, the mortality at 168 h [5] was 0% and the mortality at 168 h [6] was 40%. It also gave a mortality at 96 h [7] of 0%, an Activity [8] of 9.16% and a mortality at 96 h [9] of 80%. For the same compound, the mortality at 96 h [10] was 100%, the mortality at 72 h [11] was 100% and the mortality at 144 h [12] was 0%. The mortality at 168 h [13] was 80%, the Activity [14] was 3.52% and the mortality at 48 h [15] was 80%. The mortality at 48 h [16] was 100%, the mortality at 72 h [17] was 80% and the mortality at 24 h [18] was 20%. The mortality at 144 h [19] was 100%, the Activity [20] was 6.76% and the mortality at 120 h [21] was 100%. For the same compound, the Activity [22] was 4.8%, the mortality at 72 h [23] was 80% and the Root length [24] was 46 mm. For the same compound, the mortality at 72 h [25] was 100%, the mortality at 120 h [26] was 40% and the mortality at 120 h [27] was 80%. It also gave an Activity [28] of 19.19% and a mortality at 144 h [29] of 80%.
